Measured values from paper PMC2010749, “Cytotoxic and clastogenic effects of soluble and insoluble compounds containing hexavalent and trivalent chromium” (British Journal of Cancer, 1981).

Key:
[1] = test system: CHO Chinese hamster fibroblast line; assay: Cell growth of CHO cultures (DNA + RNA content); assay type: cell-based; details: 32 h in MEM
Method: (§1) Cell growth and labelling.-The reduction in cell growth, based on the nucleic acid content (DNA + RNA) of treated cultures, and the inhibition of DNA, RNA and protein syn- thesis, based on the incorporation of labelled precursors, were determined, to evaluate the cytotoxic effects of Cr compounds in BHK cell cultures. […] Three to four thousand cells were then examined for each dose level and each time interval, and the mitotic index (the ratio of all mitoses to the total number of cells) and the frequencies of each mitotic phase (the ratios of cells in each phase to total mitoses) were determined. […] Chromium compounds and cell treatments.- The tested compounds of Cr(VI) and Cr(III) and their physico-chemical properties are listed in Table I. In many experiments in which most of them were highly insoluble or only partially soluble (see Tables I, IV, V), Cr compounds were directly suspended in the growth medium used for treatments. […] The cytotoxic and clastogenic effects were usually deter- mined just at the end of Cr treatments, but sometimes the treated cells were washed with HBSS and incubated with normal growth medium, so that the effects of Cr were deter- mined at different times after the end of treatment (see Fig. 3 and Table VII).

[2] = test system: HEp-2 human epithelial-like line; details: 2 h exposure to medium preincubated 2 days with 0.5 mg/ml in presence of BHK cells
Method: as §1

[3] = test system: BHK 21 Syrian hamster fibroblast line; assay: DNA, RNA and protein syntheses in BHK cells, Cr compounds added directly to medium; assay type: cell-based; details: 48 h in MEM
Method: as §1

[4] = test system: BHK 21 Syrian hamster fibroblast line; assay: Cell growth of BHK cultures (DNA + RNA content), Cr compounds added directly to medium; assay type: cell-based; details: 48 h in MEM
Method: (§2) Cell growth and labelling.-The reduction in cell growth, based on the nucleic acid content (DNA + RNA) of treated cultures, and the inhibition of DNA, RNA and protein syn- thesis, based on the incorporation of labelled precursors, were determined, to evaluate the cytotoxic effects of Cr compounds in BHK cell cultures. […] Three to four thousand cells were then examined for each dose level and each time interval, and the mitotic index (the ratio of all mitoses to the total number of cells) and the frequencies of each mitotic phase (the ratios of cells in each phase to total mitoses) were determined. […] Chromium compounds and cell treatments.- The tested compounds of Cr(VI) and Cr(III) and their physico-chemical properties are listed in Table I. In many experiments in which most of them were highly insoluble or only partially soluble (see Tables I, IV, V), Cr compounds were directly suspended in the growth medium used for treatments. In the experiments on the induction of chromosome aberrations and SCE in CHO cells, almost complete solubilization was obtained in N HCI for Cr(III) compounds and 0-5N NaOH for Cr(VI) compounds, after which they were diluted with MEM to the final concentrations specified in Table IX. […] The cytotoxic and clastogenic effects were usually deter- mined just at the end of Cr treatments, but sometimes the treated cells were washed with HBSS and incubated with normal growth medium, so that the effects of Cr were deter- mined at different times after the end of treatment (see Fig. 3 and Table VII).

[5] = test system: BHK 21 Syrian hamster fibroblast line; assay: DNA, RNA and protein syntheses in BHK monolayers exposed to filtered medium preincubated with Cr compounds; assay type: cell-based;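 note: DNA, RNA and protein synthesis in BHK cultures assessed by incorporation of labelled precursors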
Method: as §1

[6] = test system: rats; details: s.c. in rats; 0% in the controls; ref Maltoni (1976); cited from earlier work
[7] = test system: Salmonella; details: ref Petrilli & De Flora (1978a,b) and De Flora (1981), cited from earlier work; for Mutagenicity in the plate test: dissolved in 0.5N NaOH
[8] = Solubility of chromium compounds (Table I)
Method: as §2

[9] = test system: bacteria and mammalian cells in culture; details: 1979, De Flora, 1981, cited from earlier work
[10] = preincubated 48 h with 0.5 mg/ml, cells exposed 24 h
[11] = 0.5 mg/ml, preincubation 2 h, monolayers exposed 24 h
[12] = 0.5 mg/ml, preincubation 1 d, monolayers exposed 24 h
[13] = 0.5 mg/ml, preincubation 2 d, monolayers exposed 24 h
[14] = 0.5 mg/ml, preincubation 3 d, monolayers exposed 24 h
[15] = 0.5 mg/ml, preincubation 6 d, monolayers exposed 24 h
[16] = preincubated 48 h with 0.15/0.05 mg/ml (one value for both), cells exposed 24 h

Compound `O=S(=O)([O-])[O-].O=S(=O)([O-])[O-].O=S(=O)([O-])[O-].[Cr+3].[Cr+3]` [Chromium sulphate] has a Cell growth ([1]; 5 µg/ml) of 100 % control, a Cell growth ([1]; 25 µg/ml) of 100 % control and a Cell growth ([1]; 150 µg/ml) of 93 % control. The “Mitotic block (% increase of abnormal metaphases 2-4 h after treatment)” value [2] was “+ (+ (<50%))”, the “Mitotic inhibition, early (% reduction of normal prophases at the end of treatment)” value [2] was “+ (+ (< 30%))” and the “Mitotic inhibition, late (% reduction of normal prophases 24 h after treatment)” value [2] was “+ (+ (< 30%))”. For the same compound, the DNA synthesis ([3]; 0.5 mg/ml) was 45 % of controls, the Protein synthesis ([3]; 0.5 mg/ml) was 69 % of controls and the RNA synthesis ([3]; 0.5 mg/ml) was 55 % of controls. For the same compound, the Cell growth ([4]; 0.5 mg/ml) was 68 % of controls, the “DNA synthesis, preinc. in MEM” value [5, 10] was 82 % of controls and the “DNA synthesis, preinc. in MEM+BHK” value [5, 10] was 100 % of controls. For the same compound, the “Protein synthesis, preinc. in MEM” value [5, 10] was 100 % of controls, the “Protein synthesis, preinc. in MEM+BHK” value [5, 10] was 100 % of controls and the “RNA synthesis, preinc. in MEM” value [5, 10] was 87 % of controls. The “RNA synthesis, preinc. in MEM+BHK” value [5, 10] was 100 % of controls.
In the case of Chromium sulphate [Chromium alum], the Cell growth ([1]; 5 µg/ml) is reported as 100 % control, the Cell growth ([1]; 25 µg/ml) is reported as 100 % control and the Cell growth ([1]; 150 µg/ml) is reported as 100 % control. For the same compound, the “Mitotic block (% increase of abnormal metaphases 2-4 h after treatment)” value [2] was “+ (+ (<50%))”, the “Mitotic inhibition, early (% reduction of normal prophases at the end of treatment)” value [2] was “_” and the “Mitotic inhibition, late (% reduction of normal prophases 24 h after treatment)” value [2] was “+ (+ (< 30%))”. The DNA synthesis ([3]; 0.5 mg/ml) was 66 % of controls, the Protein synthesis ([3]; 0.5 mg/ml) was 96 % of controls and the RNA synthesis ([3]; 0.5 mg/ml) was 89 % of controls. The Cell growth ([4]; 0.5 mg/ml) was 88 % of controls, the “Frequency of sarcomas at the site of injection” value [6] was 20-25% and the “DNA synthesis, preinc. in MEM” value [5, 10] was 92 % of controls. The “DNA synthesis, preinc. in MEM+BHK” value [5, 10] was 100 % of controls, the “Protein synthesis, preinc. in MEM” value [5, 10] was 100 % of controls and the “Protein synthesis, preinc. in MEM+BHK” value [5, 10] was 100 % of controls. The “RNA synthesis, preinc. in MEM” value [5, 10] was 100 % of controls and the “RNA synthesis, preinc. in MEM+BHK” value [5, 10] was 100 % of controls.
For `[O]=[Cr](=[O])([O-])[O-].[O]=[Pb].[Pb+2]` [Chromium orange, Basic lead chromate], the “Mutagenicity in the plate test” value [7] is listed as “positive”, the “Mutagenicity in the spot test” value [7] is listed as “mutagens” and the Cell growth ([1]; 5 µg/ml) is listed as 100 % control. The Cell growth ([1]; 25 µg/ml) was 93 % control, the Cell growth ([1]; 150 µg/ml) was 56 % control and the “Mitotic block (% increase of abnormal metaphases 2-4 h after treatment)” value [2] was “++ (+ + (50-100%))”. The “Mitotic inhibition, early (% reduction of normal prophases at the end of treatment)” value [2] was “++ (+ + (30-70%))”, the “Mitotic inhibition, late (% reduction of normal prophases 24 h after treatment)” value [2] was “+++ (+ + + (> 70%))” and the DNA synthesis ([3]; 0.05 mg/ml) was 43 % of controls. For the same compound, the Protein synthesis ([3]; 0.05 mg/ml) was 92 % of controls, the RNA synthesis ([3]; 0.05 mg/ml) was 84 % of controls and the DNA synthesis ([3]; 0.15 mg/ml) was 11 % of controls. For the same compound, the Protein synthesis ([3]; 0.15 mg/ml) was 75 % of controls, the RNA synthesis ([3]; 0.15 mg/ml) was 53 % of controls and the DNA synthesis ([3]; 0.5 mg/ml) was 0 % of controls. For the same compound, the Protein synthesis ([3]; 0.5 mg/ml) was 0 % of controls, the RNA synthesis ([3]; 0.5 mg/ml) was 0 % of controls and the Cell growth ([4]; 0.05 mg/ml) was 72 % of controls. For the same compound, the Cell growth ([4]; 0.15 mg/ml) was 41 % of controls, the Cell growth ([4]; 0.5 mg/ml) was 0 % of controls and the “Frequency of sarcomas at the site of injection” value [6] was 65-90%. The Solubility in water [8] was “Very low”, the “DNA synthesis, preinc. in MEM” value [5, 11] was 100 % of controls and the “DNA synthesis, preinc. in MEM+BHK” value [5, 11] was 100 % of controls. For the same compound, the “Protein synthesis, preinc. in MEM” value [5, 11] was 100 % of controls, the “Protein synthesis, preinc. in MEM+BHK” value [5, 11] was 100 % of controls and the “RNA synthesis, preinc. in MEM” value [5, 11] was 100 % of controls. The “RNA synthesis, preinc. in MEM+BHK” value [5, 11] was 100 % of controls, the “DNA synthesis, preinc. in MEM” value [5, 12] was 84 % of controls and the “DNA synthesis, preinc. in MEM+BHK” value [5, 12] was 95 % of controls. The “Protein synthesis, preinc. in MEM” value [5, 12] was 100 % of controls, the “Protein synthesis, preinc. in MEM+BHK” value [5, 12] was 100 % of controls and the “RNA synthesis, preinc. in MEM” value [5, 12] was 100 % of controls. For the same compound, the “RNA synthesis, preinc. in MEM+BHK” value [5, 12] was 100 % of controls, the “DNA synthesis, preinc. in MEM” value [5, 13] was 54 % of controls and the “DNA synthesis, preinc. in MEM+BHK” value [5, 13] was 86 % of controls. For the same compound, the “Protein synthesis, preinc. in MEM” value [5, 13] was 92 % of controls, the “Protein synthesis, preinc. in MEM+BHK” value [5, 13] was 100 % of controls and the “RNA synthesis, preinc. in MEM” value [5, 13] was 85 % of controls. For the same compound, the “RNA synthesis, preinc. in MEM+BHK” value [5, 13] was 96 % of controls, the “DNA synthesis, preinc. in MEM” value [5, 14] was 47 % of controls and the “DNA synthesis, preinc. in MEM+BHK” value [5, 14] was 78 % of controls. For the same compound, the “Protein synthesis, preinc. in MEM” value [5, 14] was 100 % of controls, the “Protein synthesis, preinc. in MEM+BHK” value [5, 14] was 100 % of controls and the “RNA synthesis, preinc. in MEM” value [5, 14] was 81 % of controls. The “RNA synthesis, preinc. in MEM+BHK” value [5, 14] was 100 % of controls, the “DNA synthesis, preinc. in MEM” value [5, 15] was 21 % of controls and the “DNA synthesis, preinc. in MEM+BHK” value [5, 15] was 52 % of controls. The “Protein synthesis, preinc. in MEM” value [5, 15] was 78 % of controls, the “Protein synthesis, preinc. in MEM+BHK” value [5, 15] was 92 % of controls and the “RNA synthesis, preinc. in MEM” value [5, 15] was 66 % of controls. The “RNA synthesis, preinc. in MEM+BHK” value [5, 15] was 72 % of controls, the “DNA synthesis, preinc. in MEM” value [5, 10] was 62 % of controls and the “DNA synthesis, preinc. in MEM+BHK” value [5, 10] was 100 % of controls. The “Protein synthesis, preinc. in MEM” value [5, 10] was 100 % of controls, the “Protein synthesis, preinc. in MEM+BHK” value [5, 10] was 100 % of controls and the “RNA synthesis, preinc. in MEM” value [5, 10] was 93 % of controls. The “RNA synthesis, preinc. in MEM+BHK” value [5, 10] was 100 % of controls, the “DNA synthesis, preinc. in MEM” value [5, 16] was 100 % of controls and the “DNA synthesis, preinc. in MEM+BHK” value [5, 16] was 100 % of controls. The “Protein synthesis, preinc. in MEM” value [5, 16] was 100 % of controls, the “Protein synthesis, preinc. in MEM+BHK” value [5, 16] was 100 % of controls and the “RNA synthesis, preinc. in MEM” value [5, 16] was 100 % of controls. For the same compound, the “RNA synthesis, preinc. in MEM+BHK” value [5, 16] was 100 % of controls.
For `[Cl][Cr]([Cl])[Cl]` [Chromium chloride], the Cell growth ([1]; 50 µg/ml) was 95 % control, the “Mitotic block (% increase of abnormal metaphases 2-4 h after treatment)” value [2] was “+ (+ (<50%))” and the “Mitotic inhibition, early (% reduction of normal prophases at the end of treatment)” value [2] was “++ (+ + (30-70%))”. The “Mitotic inhibition, late (% reduction of normal prophases 24 h after treatment)” value [2] was “+ (+ (< 30%))”, the DNA synthesis ([3]; 0.5 mg/ml) was 100 % of controls and the Protein synthesis ([3]; 0.5 mg/ml) was 100 % of controls. For the same compound, the RNA synthesis ([3]; 0.5 mg/ml) was 100 % of controls, the Cell growth ([4]; 0.5 mg/ml) was 100 % of controls and the Solubility in water [8] was “High”. For the same compound, the “DNA synthesis, preinc. in MEM” value [5, 10] was 100 % of controls, the “DNA synthesis, preinc. in MEM+BHK” value [5, 10] was 100 % of controls and the “Protein synthesis, preinc. in MEM” value [5, 10] was 100 % of controls. For the same compound, the “Protein synthesis, preinc. in MEM+BHK” value [5, 10] was 100 % of controls, the “RNA synthesis, preinc. in MEM” value [5, 10] was 100 % of controls and the “RNA synthesis, preinc. in MEM+BHK” value [5, 10] was 100 % of controls.
For `[O]=[Cr](=[O])([O-])[O-].[Pb+2]` [lead chromate], the “Mutagenicity in the plate test” value [7] is listed as “positive”, the “Mutagenicity for bacteria and mammalian cells in culture” value ([9]; fine suspension in water, ref Newbold et al.) is listed as “inactive as a mutagen” and the “Point mutations in bacteria” value ([9]; solubilized in acids and alkalis, ref Nestmann et al.) is listed as “induce point mutations”.
